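48-hour exposure; five concentrations; linearly interpolated endpoints. Definition used: TGI = concentration required for complete inhibition of growth.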
Assays:
Test in all cases: growth of human tumour cells (NCI), 48 h
786-0 renal = system: 786-0 renal
A549 NSCLC = system: A549 NSCLC
ACHN renal = system: ACHN renal
HCT-116 colon = system: HCT-116 colon
HCT-15 colon = system: HCT-15 colon
HL-60(TB) leukemia = system: HL-60(TB) leukemia
HOP-62 NSCLC = system: HOP-62 NSCLC
LOX IMVI melanoma = system: LOX IMVI melanoma
LXFL 529 NSCLC = system: LXFL 529 NSCLC
MALME-3M melanoma = system: MALME-3M melanoma
MCF7 breast = system: MCF7 breast
MDA-N = system: MDA-N
MOLT-4 leukemia = system: MOLT-4 leukemia
NCI-H23 lung = system: NCI-H23 lung
RXF 393 renal = system: RXF 393 renal
SNB-19 CNS = system: SNB-19 CNS
SR leukemia = system: SR leukemia
T-47D breast = system: T-47D breast
UACC-257 melanoma = system: UACC-257 melanoma
UACC-62 melanoma = system: UACC-62 melanoma

SMILES | TGI (786-0 renal) [µM] | TGI (A549 NSCLC) [µM] | TGI (ACHN renal) [µM] | TGI (HCT-116 colon) [µM] | TGI (HCT-15 colon) [µM] | TGI (HL-60(TB) leukemia) [µM] | TGI (HOP-62 NSCLC) [µM] | TGI (LOX IMVI melanoma) [µM] | TGI (LXFL 529 NSCLC) [µM] | TGI (MALME-3M melanoma) [µM] | TGI (MCF7 breast) [µM] | TGI (MDA-N) [µM] | TGI (MOLT-4 leukemia) [µM] | TGI (NCI-H23 lung) [µM] | TGI (RXF 393 renal) [µM] | TGI (SNB-19 CNS) [µM] | TGI (SR leukemia) [µM] | TGI (T-47D breast) [µM] | TGI (UACC-257 melanoma) [µM] | TGI (UACC-62 melanoma) [µM]
Cc1cc(N(CCC#N)CCC#N)ccc1/C=C(\NC(=O)/C=C/c1ccccc1)C(=O)Nc1ccc(Cl)cc1 | > 100 | > 100 | > 100 | > 100 | > 100 | > 100 | > 100 | > 100 | > 100 | > 50.9 | > 100 | > 100 | > 100 | > 100 | > 100 | > 100 | > 100 | > 100 | > 100 | > 14.7
O=NN1CCN=C1c1ccc([N+](=O)[O-])cc1 | > 100 | > 100 | > 100 | > 100 | > 100 | > 100 | > 100 | > 100 | > 100 | > 100 | – | – | > 100 | > 100 | > 100 | > 100 | > 100 | – | > 100 | > 100
O=C(Nc1ccc([N+](=O)[O-])cc1[N+](=O)[O-])C(=O)C(C(=O)c1ccc(Cl)c(Cl)c1)C1OC(=O)c2ccccc21 (centres undefined) | 41.5 | 73.7 | > 100 | 38.4 | 76.7 | 85.3 | 36.9 | 41.4 | 47.3 | > 100 | – | – | 76.8 | 39.8 | 24.8 | 66.7 | > 100 | – | 68.4 | 36

Source: PubChem BioAssay (NCI)
